Experimental data: patent US20240228535A1 (priority 2022, published 2024)

These compounds were tested against SARS2 coronavirus 3CL protease (Severe acute respiratory syndrome coronavirus 2, UniProt P0DTD1) (assay: biochemical). Details: 5 nM enzyme, 30 min pre-incubation with compound, 15 μM peptide substrate, 4 h at room temperature; read-out: FRET Potency (nM); IC50 values in the SARS2 3CLPro FRET assay.

`CNC(=O)C(=O)[C@H](C[C@@H]1C[C@@H](C)NC1=O)NC(=O)c1cc(Cl)ccc1NC(=O)OC1CCC(F)(F)C1` (stereo partly drawn) [Example 201, (3,3-difluorocyclopentyl) N-[4-chloro-2-[(1S)-3-(methylamino)-1-[[(3S,5R)-5-methyl-2-oxo-pyrrolidin-3-yl]methyl]-2,3-dioxo-propyl]carbamoyl]phenyl] carbamate] and `CNC(=O)C(=O)[C@H](C[C@@H]1C[C@@H](C)NC1=O)NC(=O)c1cc(Cl)ccc1NC(=O)OCC1CCCC(F)(F)C1` (stereo partly drawn) [Example 218, (3,3-difluorocyclohexyl)methyl N-[4-chloro-2-[[(1S)-3-(methylamino)-1-[[(3S,5R)-5-methyl-2-oxo-pyrrolidin-3-yl]methyl]-2,3-dioxo-propyl]carbamoyl]phenyl] carbamate] are within 1.5-fold of each other in IC50: 7 nM for the first, 6.8 nM for the second.

First: CNC(=O)C(=O)[C@H](C[C@@H]1C[C@@H](C)NC1=O)NC(=O)c1cc(Cl)ccc1NC(=O)C1(CC(F)(F)F)CC1 [Example 202, 5-chloro-N-[(1S)-3-(methylamino)-1-[[(3S,5R)-5-methyl-2-oxo-pyrrolidin-3-yl]methyl]-2,3-dioxo-propyl]-2-[[1-(2,2,2-trifluoroethyl)cyclopropane-carbonyl]amino]benzamide]
Second: CNC(=O)C(=O)[C@H](C[C@@H]1C[C@@H](C)NC1=O)NC(=O)c1cc(Cl)c(F)cc1NC(=O)C1(CC(F)(F)F)CC1 [Example 214, 5-chloro-4-fluoro-N-[(1S)-3-(methylamino)-1-[[(3S,5R)-5-methyl-2-oxo-pyrrolidin-3-yl]methyl]-2,3-dioxo-propyl]-2-[[1-(2,2,2-trifluoroethyl)cyclopropane-carbonyl]amino]benzamide]
The IC50 of the first is 1.8-fold higher: 11.9 nM for the first, 6.8 nM for the second.

First: CNC(=O)C(=O)[C@H](C[C@@H]1C[C@@H](C)NC1=O)NC(=O)c1cc(C(F)F)ccc1NC(=O)C1(C(F)(F)F)CC1 [Example 203, 5-(difluoromethyl)-N-[(1S)-3-(methylamino)-1-[[(3S,5R)-5-methyl-2-oxo-pyrrolidin-3-yl]methyl]-2,3-dioxo-propyl]-2-[[1-(trifluoromethyl)cyclopropane-carbonyl]amino]benzamide]
Second: C[C@@H]1C[C@@H](C[C@H](NC(=O)c2cc(Cl)ccc2NC(=O)[C@H](C)CC(F)(F)F)C(=O)C(=O)NC2CC2)C(=O)N1 [Example 209, 5-chloro-N-[(1S)-3-(cyclopropylamino)-1-[[(3S,5R)-5-methyl-2-oxo-pyrrolidin-3-yl]methyl]-2,3-dioxo-propyl]-2-[[(2R)-4,4,4-trifluoro-2-methyl-butanoyl]amino]benzamide]
The IC50 of the first is 3.7-fold higher: 36.6 nM for the first, 9.8 nM for the second.

`C[C@@H]1C[C@@H](C[C@H](NC(=O)c2cc(Cl)ccc2NC(=O)[C@@H]2CN(C)C(=O)O2)C(=O)C(=O)NC2CC2)C(=O)N1` [Example 204, (5S)-N-[4-chloro-2-[[(1S)-3-(cyclopropylamino)-1-[[(3S,5R)-5-methyl-2-oxo-pyrrolidin-3-yl]methyl]-2,3-dioxo-propyl]carbamoyl]phenyl]-3-methyl-2-oxo-oxazolidine-5-carboxamide] and `C[C@@H]1C[C@@H](C[C@H](NC(=O)c2cc(Cl)ccc2NC(=O)[C@H]2CN(C)C(=O)O2)C(=O)C(=O)NC2CC2)C(=O)N1` [Example 205] are within 1.5-fold of each other in IC50: 4.7 nM for the first, 6.6 nM for the second.

`C[C@@H]1C[C@@H](C[C@H](NC(=O)c2cc(Cl)cc(F)c2NC(=O)C23CC(F)(C2)C3)C(=O)C(=O)NC2CC2)C(=O)N1` [Example 206] and `C[C@@H]1C[C@@H](C[C@H](NC(=O)c2cc(Cl)cc(F)c2NC(=O)CCC(F)(F)F)C(=O)C(=O)NC2CC2)C(=O)N1` [Example 213, 5-chloro-N-[(1S)-3-(cyclopropylamino)-1-[[(3S,5R)-5-methyl-2-oxo-pyrrolidin-3-yl]methyl]-2,3-dioxo-propyl]-3-fluoro-2-(4,4,4-trifluorobutanoylamino) benzamide] are within 1.5-fold of each other in IC50: 12.8 nM for the first, 15.4 nM for the second.

Going from `CNC(=O)C(=O)[C@H](C[C@@H]1C[C@@H](C)NC1=O)NC(=O)c1cc(F)ccc1NC(=O)c1ccnc(C(F)(F)F)c1` [Example 207, N-[4-fluoro-2-[[(1S)-3-(methylamino)-1-[[(3S,5R)-5-methyl-2-oxo-pyrrolidin-3-yl]methyl]-2,3-dioxo-propyl]carbamoyl]phenyl]-2-(trifluoromethyl)pyridine-4-carboxamide] to `C[C@@H]1C[C@@H](C[C@H](NC(=O)c2cc(Cl)ccc2NC(=O)c2ccnc(C(F)(F)F)c2)C(=O)C(N)=O)C(=O)N1` [Example 208, N-[2-[[(1S)-3-amino-1-[[(3S,5R)-5-methyl-2-oxo-pyrrolidin-3-yl]methyl]-2,3-dioxo-propyl]carbamoyl]-4-chloro-phenyl]-2-(trifluoromethyl)pyridine-4-carboxamide], the IC50 falls from 11.4 nM to 6.9 nM (1.7-fold). The second is the more potent here.

`CC(OC(=O)Nc1ccc(Cl)cc1C(=O)N[C@@H](C[C@@H]1C[C@@H](C)NC1=O)C(=O)C(=O)NC1CC1)C(F)(F)F` (stereo partly drawn) [Example 210, (2,2,2-trifluoro-1-methyl-ethyl) N-[4-chloro-2-[[(1S)-3-(cyclopropylamino)-1-[[(3S,5R)-5-methyl-2-oxo-pyrrolidin-3-yl]methyl]-2,3-dioxo-propyl]carbamoyl]phenyl] carbamate] and `C[C@@H]1C[C@@H](C[C@H](NC(=O)c2cc(Cl)ccc2NC(=O)[C@@H]2CN(C)C(=O)N2C)C(=O)C(=O)NC2CC2)C(=O)N1` [Example 212, (4S)-N-[4-chloro-2-[[(1S)-3-(cyclopropylamino)-1-[[(3S,5R)-5-methyl-2-oxo-pyrrolidin-3-yl]methyl]-2,3-dioxo-propyl]carbamoyl]phenyl]-1,3-dimethyl-2-oxo-imidazolidine-4-carboxamide] are within 1.5-fold of each other in IC50: 7.8 nM for the first, 5.6 nM for the second.

`CC(OC(=O)Nc1ccc(Cl)cc1C(=O)N[C@@H](C[C@@H]1C[C@@H](C)NC1=O)C(=O)C(=O)NC1CC1)C(F)(F)F` (stereo partly drawn) [Example 211, (2,2,2-trifluoro-1-methyl-ethyl) N-[4-chloro-2-[[(1S)-3-(cyclopropylamino)-1-[[(3S,5R)-5-methyl-2-oxo-pyrrolidin-3-yl]methyl]-2,3-dioxo-propyl]carbamoyl]phenyl] carbamate] and `CNC(=O)C(=O)[C@H](C[C@@H]1C[C@@H](C)NC1=O)NC(=O)c1cc(Cl)ccc1NC(=O)OCC1CCCC(F)(F)C1` (stereo partly drawn) [Example 219, (3,3-difluorocyclohexyl)methyl N-[4-chloro-2-[[(1S)-3-(methylamino)-1-[(3S,5R)-5-methyl-2-oxo-pyrrolidin-3-yl]methyl]-2,3-dioxo-propyl]carbamoyl]phenyl] carbamate] are within 1.5-fold of each other in IC50: 7.3 nM for the first, 7.1 nM for the second.

First: CNC(=O)C(=O)[C@H](C[C@@H]1C[C@@H](C)NC1=O)NC(=O)c1cc(Cl)ccc1NC(=O)c1cnc(C(F)(F)F)nc1 [Example 215, N-[4-chloro-2-[[(1S)-3-(methylamino)-1-[[(3S,5R)-5-methyl-2-oxo-pyrrolidin-3-yl]methyl]-2,3-dioxo-propyl]carbamoyl]phenyl]-2-(trifluoromethyl)pyrimidine-5-carboxamide]
Second: CNC(=O)C(=O)[C@H](C[C@@H]1C[C@@H](C)NC1=O)NC(=O)c1cc(Cl)ccc1NC(=O)c1ncc(C(F)(F)F)cn1 [Example 217, N-[4-chloro-2-[[(1S)-3-(methylamino)-1-[[(3S,5R)-5-methyl-2-oxo-pyrrolidin-3-yl]methyl]-2,3-dioxo-propyl]carbamoyl]phenyl]-5-(trifluoromethyl)pyrimidine-2-carboxamide]
The IC50 of the first is 1.5-fold higher: 10.1 nM for the first, 6.7 nM for the second.

With `CNC(=O)C(=O)[C@H](C[C@@H]1C[C@@H](C)NC1=O)NC(=O)c1cc(Cl)ccc1NC(=O)c1nccc(C(F)(F)F)n1` [Example 216] the IC50 was 9.6 nM.
